Like-named read-outs stand apart in the source and are kept apart here.
Tests used:
[1] = test system: human cervical carcinoma Hela cells; assay: MTT anti-tumor test in vitro, Hela; type: cell-based; conditions: for IC50 value: Hela, MTT, 48 hours
Description: (§1) A complete culture medium is used for diluting the above original solution into corresponding concentrations for later use.
(§2) Human cervical carcinoma Hela cells, human hepatoma BEL-7402 cells, mucinous Human epidermoid A549 lung cancer cells, human breast cancer MCF-7/S cells, human glioma U251 cells, and human normal embryonic kidney HEK-293 cells are purchased from USA, American Type Culture Collection (ATCC). All the tumor cells are used the DMEM medium (containing 10% FBS, 100 U/ml penicillin and 100 μg/ml streptomycin) for culturing and subculturing, and HEK-293 cells are using RPMI1640 medium (10% FBS, 100 U/ml penicillin, and 100 μg/ml streptomycin) for culturing and subculturing, wherein the culture condition is in a 5% CO2 incubator at 37° C.
(§3) Subculture six kinds of cells, which has a logarithmic growing period, adherent rate about 80%, and in good condition, such as human cervical carcinoma Hela cells, human hepatoma BEL-7402 cells, mucinous Human epidermoid A549 lung cancer cells, human breast cancer MCF-7/S cells, human glioma U251 cells, and human normal embryonic kidney HEK-293 cells. Discard the culture medium, rinse 1-2 times with PBS to remove serum, add 1 ml 0.25% Trypsin-0.01% EDTA (37° C. incubation) to digest for 1-2 minutes, add FBS culture medium to terminate the above digestion, centrifuge at a speed below 800 r/min for 2-3 minutes and discard the supernatant, re-suspended cells in 10% FBS medium, tack the cell suspension liquid for cell counting, adjust the density of the above liquid to 1×10^5/ml, then inoculate to a 96-holes plates (100 μl/hole), and then incubate in 5% CO2 incubator at 37° C. overnight. The next day add above cells to different concentrations of I-a, I-b, I-c and I-d, 100 μl/hole (its final concentration is respectively 30, 60, 120, 240, 480 μg/ml); meanwhile, set up the blank control group (0 μM), and establish 3 holes. Continuing the cultural process, discard the culture medium after 48 hours that the drug has been effected, add 100 μl PBS of 0.5 mg/ml MTT (PH 7.2) into each holes, after 4 hours culture, remove the culture medium by adherent cells express flipping method, add 100 μl of DMSO to each holes, oscillate it by micro-oscillation device for 5 minutes, and measure the OD value at 490 nm wavelength. Repeat the above experiment three times to get an average value. Calculate the inhibition rate (IR %) of the tumor cell proliferation in vitro from different concentrations of I-a, I-b, I-c, I-d by the following formula:
(§4) IR %=(1−ODsampale/ODcontrol)×100%
(§5) Use SPSS11.5 software to calculate the half inhibitory concentration IC50 of I-a, I-b, I-c and I-d. The results are shown in Table 2 to illustrate IC50 values (unit: μg/ml) of the four compounds.

[2] = test system: mucinous Human epidermoid A549 lung cancer cells; assay: MTT anti-tumor test in vitro, A549; type: cell-based; conditions: for IC50 value: A549, MTT, 48 hours
Description: as §1, §2, §3, §4, §5

[3] = test system: human hepatoma BEL-7402 cells; assay: MTT anti-tumor test in vitro, BEL-7402; type: cell-based; conditions: Bel- (BEL-7402)
Description: as §1, §2, §3, §4, §5

[4] = test system: human glioma U251 cells; assay: MTT anti-tumor test in vitro, U251; type: cell-based
Description: as §1, §2, §3, §4, §5

[5] = test system: human breast cancer MCF-7/S cells; assay: MTT anti-tumor test in vitro, MCF-7/S; type: cell-based; conditions: MCF-7 (MCF-7/S)
Description: as §1, §2, §3, §4, §5

[6] = test system: human normal embryonic kidney HEK-293 cells; assay: MTT test on normal cells, HEK-293; type: cell-based; conditions: HEK- (HEK-293), MTT, 48 hours
Description: as §1, §2
Subculture six kinds of cells, which has a logarithmic growing period, adherent rate about 80%, and in good condition, such as human cervical carcinoma Hela cells, human hepatoma BEL-7402 cells, mucinous Human epidermoid A549 lung cancer cells, human breast cancer MCF-7/S cells, human glioma U251 cells, and human normal embryonic kidney HEK-293 cells. […] Repeat the above experiment three times to get an average value.
as §4

[7] = test system: mice ascites hepatoma cell strain H22; assay: Anti-tumor test in vivo, mice transplanted tumor of liver cancer H22; parameters: species or system Kunming mice
Procedure: The mice ascites hepatoma cell strain H22 is purchased from the Experimental Center of Zhongshan University.
Recovery the mice ascites hepatoma cell strain H22, put the cell suspension liquid into a centrifugal tube and use the 4° C. saline to wash the suspension liquid twice, then centrifuge to discard the supernatant, add appropriate 4° C. saline to dilute the suspension liquid, count cells with 0.2% trypan blue, adjust the density to 10^7 cell/ml, according to 0.2 (ml/mice) intraperitoneal inoculation H22 cell suspension liquid.
After ten days of the intraperitoneal inoculation, the cervical vertebra is dislocated. Disinfect the mice abdominal skin, and suck the milky ascites with a sterile syringe, then adjust the concentration of tumor cells to 1×10^7 cell/ml with injection used saline. Disinfect the right armpit skin of the Kunming mice with alcohol swab, subcutaneously vaccinate the cell suspension liquid 0.2 ml, conventional feeding. […] Totally there are 180 tumor-bearing mice.
(§6) The 180 tumor-bearing mice are divided into 18 groups by the weigh of the mice, wherein each group has 10 mice (half male and half female). The drug delivery methods of each group are shown in Table 3 to illustrate eighteen groups of mice drug delivery situation.
Group 1 is the model group, and the mice of group 1 are given the tail vein saline injection daily started on the second day of the tumor-bearing for 10 days.
(§7) Group 2 is the cyclophosphamide (CTX) group, and the mice of group 2 are only given the cyclophosphamide in the intraperitoneal of the mice on the second day of the tumor-bearing.
(§8) Group 3 to 18 groups are given the four compounds respectively, wherein the groups delivered 25 mg/kg drug are tail vein low-dose group, wherein the groups delivered 50 mg/kg drugs are the tail vein medium-dose group, wherein the groups delivered 100 mg/kg drugs are the tail vein high-dose group, wherein the groups delivered 200 mg/kg drugs are the oral enteral group. These mice from group 3 to 18 start the drug delivery on the second day of the tumor-bearing, and delivered once a day for 10 sequent days.
The above drug deliveries are 20 ml/kg.
After finishing the drug delivery process, weight the mice, then kill the mice by pulling off the neck, and anatomy to get the tumor tissue of the mice on the next day of finishing the drug delivery process, and then weight the anatomized tumor by electronic weighing scales to calculate the inhibition rate.

[8] = Description: as §6, §7, §8
After the drug delivery, weight the mice weight, then execute the mice, and then weight the spleen and thymus weight by electronic weighting scale respectively. The spleen index and thymus index are the weight (mg) of mice spleen, thymus of each group/mice weight (g).

[9] = single tail vein administration 350 mg/kg
[10] = average of three experiments ± SD
[11] = average of three experiments ± SD, 48 hours
[12] = ip. 60/single mg/kg on the second day of tumor-bearing
[13] = ip. 60/single mg/kg on the second day of tumor-bearing, H22 tumor-bearing mice

With “2,4-dimethoxy-3-isopentenyl-cinnamic acid (E:Z=1:1) [I-d]” the IC50 value [1, 10] was 153.59 ± 13.03 µg/mL, the IC50 value ([1]; experiment 1) was 144 µg/mL and the IC50 value ([1]; experiment 2) was 149 µg/mL. For the same molecule, the “HeLa cell proliferation IC50 values” ([1]; at 48 hours) was 148.59 ± 5.96 µg/mL, the IC50 value ([2]; experiment 1) was 190 µg/mL and the IC50 value ([2]; experiment 2) was 183 µg/mL. The “A549 cell proliferation IC50 values” ([2]; at 48 hours) was 184.56 ± 5.80 µg/mL, the IC50 value [3, 11] was 216.72 ± 5.07 µg/mL and the IC50 value ([3]; experiment 1, 48 hours) was 221 µg/mL. For the same molecule, the IC50 value ([3]; experiment 2, 48 hours) was 211 µg/mL, the IC50 value [4, 11] was 204.44 ± 9.50 µg/mL and the IC50 value ([4]; experiment 1, 48 hours) was 210 µg/mL. The IC50 value ([4]; experiment 2, 48 hours) was 193 µg/mL, the IC50 value [5, 11] was 193.46 ± 7.57 µg/mL and the IC50 value ([5]; experiment 1, 48 hours) was 200 µg/mL. The IC50 value ([5]; experiment 2, 48 hours) was 196 µg/mL, the IC50 value [6, 10] was 350.77 ± 14.09 µg/mL and the IC50 value ([6]; experiment 1) was 347 µg/mL. For the same molecule, the IC50 value ([6]; experiment 2) was 366 µg/mL, the Tumor weight/g ([7]; i.g. 200 mg·(kg·d)^−1, once a day for 10 days) was 0.991 ± 0.410 g and the Tumor weight/g ([7]; i.v. 25 mg·(kg·d)^−1, once a day for 10 days) was 1.307 ± 0.436 g. For the same molecule, the “IR/% (inhibition rate)” value ([7]; i.v. 25 mg·(kg·d)^−1, once a day for 10 days (low-dose group)) was 14.7%, the Tumor weight/g ([7]; i.v. 50 mg·(kg·d)^−1, once a day for 10 days) was 1.068 ± 0.437 g and the “IR/% (inhibition rate)” value ([7]; i.v. 50 mg·(kg·d)^−1, once a day for 10 days (medium-dose group)) was 30.3%. For the same molecule, the Tumor weight/g ([7]; i.v. 100 mg·(kg·d)^−1, once a day for 10 days) was 0.901 ± 0.425 g, the “IR/% (inhibition rate)” value ([7]; i.v. 100 mg·(kg·d)^−1, once a day for 10 days (high-dose group)) was 41.2% and the “Mice weight/g After drug delivery” value ([8]; mouse, in vivo) was 20.0 ± 2.1 g. The “Mice weight/g Before drug deli.” value ([8]; mouse, in vivo) was 24.6 ± 2.9 g, the “effect near the tail vein of the mice and its surrounding tissue” value ([8]; mouse, in vivo) was “irritation or corrosive” and the “general observation after injection (central nervous signs)” value ([8]; mouse, in vivo) was “central nerve inhibition phenomenon”. For the same molecule, the “splenomegaly of the tumor-bearing mice” value ([8]; mouse, in vivo) was “can cause the splenomegaly” and the “drug reaction after administration” value [9] was “abnormally excited at first, and then become in an inhibit state”.
For `O=P1(N(CCCl)CCCl)NCCCO1` (centres unmarked) [CTX, cyclophosphamide, reference compound], the “IR/% (inhibition rate)” value [7, 12] was 55.2%, the Tumor weight/g [7, 12] was 0.686 ± 0.303 g and the “Mice weight/g After drug delivery” value [8, 13] was 19.6 ± 2.0 g. For the same molecule, the “Mice weight/g Before drug deli.” value [8, 13] was 23.6 ± 1.8 g, the “Spleen index/mg · g^−1” value [8, 13] was 3.00 ± 0.59 mg/g and the “Thymus index/mg · g^−1” value [8, 13] was 2.46 ± 0.65 mg/g.

Reference: patent publication US20110028758A1, “Trans-cinnamic acid derivative, its preparation mathod and the use” (priority 2007, published 2011)
